US10858356B2, “Pyrazolopyridine derivative having GLP-1 receptor agonist effect” (Chugai Seiyaku Kabushiki Kaisha, priority 2016, dated 2020)

Biological target: human GLP1R (Homo sapiens (Human), UniProt P43220)
Experiment: In vitro cAMP signal activation in human GLP1R stably-expressing cell line (hGLP1R-HEK293)
Type: cell-based
Details: cAMP concentration in hGLP1R-HEK293; 100% = 1 nM human GLP-1 (7-37)
Procedure: <Test Example 1> Measurement of In Vitro cAMP Signal Activation of a Compound in Human GLP1R
A human GLP1R stably-expressing cell line (hGLP1R-HEK293) was used in the experiment. The cells were cultured in a Dulbecco's modified Eagle's medium (DMEM) containing 10% fetal bovine serum (Sigma-Aldrich), 100 units/mL penicillin G and 100 μg/mL streptomycin sulfate (Gibco), and 500 μg/mL Geneticin (Gibco), under a moist atmosphere containing 5% CO2, at 37° C.
hGLP1R-HEK293 was seeded in 96 well plates at 2.0×10^4 cells per well and cultured over night. The medium for culturing the cells was changed to 50 μL of Medium A (DMEM, 20 mM HEPES, 0.05% BSA, 0.5 mM 3-isobutyl-1-methylxanthine) the next day, and the cells were incubated at 37° C. for 30 min. Then, 50 μL of Medium B (DMEM, 20 mM HEPES, 0.05% BSA, 0.5 mM 3-isobutyl-1-methylxanthine) containing GLP-1 or the compound was added, and the cells were incubated at 37° C. for an additional 30 min. Then, 100 μL of Assay lysis buffer (Applied Bioscience) was added, and the cells were incubated at 37° C. for 30 min. The cAMP concentration was quantified using cAMP HiRange kit (Cisbio Bioassays).
By setting the cAMP concentration when the human GLP-1 (7-37) was put into action at a concentration of 1 nM to 100%, the cAMP concentration of each well was converted to a reaction rate (%).

Sequence of human GLP1R (P43220 24-463): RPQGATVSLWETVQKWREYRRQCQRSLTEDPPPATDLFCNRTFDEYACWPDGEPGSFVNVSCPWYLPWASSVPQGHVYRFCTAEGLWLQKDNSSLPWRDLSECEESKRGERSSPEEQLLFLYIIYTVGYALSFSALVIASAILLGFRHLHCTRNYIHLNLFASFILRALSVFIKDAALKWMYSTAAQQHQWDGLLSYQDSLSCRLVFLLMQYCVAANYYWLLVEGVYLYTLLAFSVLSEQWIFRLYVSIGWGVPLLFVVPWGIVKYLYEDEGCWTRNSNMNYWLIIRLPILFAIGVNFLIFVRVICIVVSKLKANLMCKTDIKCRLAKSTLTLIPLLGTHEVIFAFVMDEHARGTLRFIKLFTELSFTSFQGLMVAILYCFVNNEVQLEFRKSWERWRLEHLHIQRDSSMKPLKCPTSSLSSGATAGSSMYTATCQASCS

SMILES | EC50 [nM]
CC[C@H]1C[C@]1(c1noc(=O)[nH]1)n1c(C(=O)N2CCc3nn(-c4cc(C)c(F)c(C)c4)c(-n4ccn(-c5ccc6c(cnn6C)c5)c4=O)c3C2)cc2cc(C3CCOCC3)ccc21 [compound 78, 3-[(1S,2S)-2-Ethyl-1-[2-[2-(4-fluoro-3,5-dimethylphenyl)-3-[3-(1-methylindazol-5-yl)-2-oxoimidazol-1-yl]-6,7-dihydro-4H-pyrazolo[4,3-c]pyridine-5-carbonyl]-5-(oxan-4-yl)indol-1-yl]cyclopropyl]-4H-1,2,4-oxadiazol-5-one] | 3.6
COCCn1ncc2cc(-n3ccn(-c4c5c(nn4-c4cc(C)c(F)c(C)c4)CCN(C(=O)c4cc6cc([C@H]7CCOC(C)(C)C7)ccc6n4[C@@]4(c6noc(=O)[nH]6)C[C@@H]4C)[C@H]5C)c3=O)ccc21 [Example 31, 3-[(1S,2S)-1-[5-[(4S)-2,2-dimethyloxan-4-yl]-2-[(4S)-2-(4-fluoro-3,5-dimethylphenyl)-3-[3-[1-(2-methoxyethyl)indazol-5-yl]-2-oxoimidazol-1-yl]-4-methyl-6,7-dihydro-4H-pyrazolo[4,3-c]pyridine-5-carbonyl]indol-1-yl]-2-methylcyclopropyl]-4H-1,2,4-oxadiazol-5-one] | 0.74
Cc1cc(-n2nc3c(c2-n2ccn(-c4ccc5c(cnn5[C@H]5CCOC5)c4)c2=O)[C@H](C)N(C(=O)c2cc4cc(-c5ccnc(C)c5F)ccc4n2[C@@]2(c4noc(=O)[nH]4)C[C@@H]2C)CC3)cc(C)c1F [Example 14, 3-[(1S,2S)-1-[2-[(4S)-2-(4-fluoro-3,5-dimethylphenyl)-4-methyl-3-[2-oxo-3-[1-[(3S)-oxolan-3-yl]indazol-5-yl]imidazol-1-yl]-6,7-dihydro-4H-pyrazolo[4,3-c]pyridine-5-carbonyl]-5-(3-fluoro-2-methylpyridin-4-yl)indol-1-yl]-2-methylcyclopropyl]-4H-1,2,4-oxadiazol-5-one] | 2.3
Cc1cc(-n2nc3c(c2-n2ccn(-c4ccc5c(cnn5C)c4)c2=O)CN(C(=O)c2cc4cc(N5CCOC6(CC6)C5)ccc4n2[C@@]2(c4noc(=O)[nH]4)C[C@@H]2C)CC3)cc(C)c1F [compound 52] | 6.7
Cc1cc(-n2nc3c(c2-n2ccn(-c4cc5cnn(C)c5cc4F)c2=O)[C@H](C)N(C(=O)c2cc4cc([C@H]5CCOC(C)(C)C5)ccc4n2[C@@]2(c4noc(=O)[nH]4)C[C@@H]2C)CC3)cc(C)c1F [compound 70] | 1.5
COc1nccc(-c2ccc3c(c2)cc(C(=O)N2CCc4nn(-c5cc(C)c(F)c(C)c5)c(-n5ccn(-c6ccc7c(cnn7C)c6)c5=O)c4[C@@H]2C)n3[C@@]2(c3noc(=O)[nH]3)C[C@@H]2C)c1C [Example 12, 3-[(1S,2S)-1-[2-[(4S)-2-(4-fluoro-3,5-dimethylphenyl)-4-methyl-3-[3-(1-methylindazol-5-yl)-2-oxoimidazol-1-yl]-6,7-dihydro-4H-pyrazolo[4,3-c]pyridine-5-carbonyl]-5-(2-methoxy-3-methylpyridin-4-yl)indol-1-yl]-2-methylcyclopropyl]-4H-1,2,4-oxadiazol-5-one] | 2.7
Cc1cc(-n2ccn(-c3c4c(nn3-c3cc(C)c(F)c(C)c3)CCN(C(=O)c3cc5cc(C6CCOCC6)ccc5n3[C@@]3(c5noc(=O)[nH]5)C[C@@H]3C)[C@H]4C)c2=O)ccc1-c1cc(N(C)C)ncn1 [Example 25, 3-[(1S,2S)-1-[2-[(4S)-3-[3-[4-[6-(dimethylamino)pyrimidin-4-yl]-3-methylphenyl]-2-oxoimidazol-1-yl]-2-(4-fluoro-3,5-dimethylphenyl)-4-methyl-6,7-dihydro-4H-pyrazolo[4,3-c]pyridine-5-carbonyl]-5-(oxan-4-yl)indol-1-yl]-2-methylcyclopropyl]-4H-1,2,4-oxadiazol-5-one] | 4
COCCn1ncc2cc(-n3ccn(-c4c5c(nn4-c4ccc(F)c(C)c4)CCN(C(=O)c4cc6cc(N7CCOC(C)(C)C7)ccc6n4[C@@]4(c6noc(=O)[nH]6)C[C@@H]4C)C5)c3=O)ccc21 [compound 58, 3-[(1S,2S)-1-[5-(2,2-dimethylmorpholin-4-yl)-2-[2-(4-fluoro-3-methylphenyl)-3-[3-[1-(2-methoxyethyl)indazol-5-yl]-2-oxoimidazol-1-yl]-6,7-dihydro-4H-pyrazolo[4,3-c]pyridine-5-carbonyl]indol-1-yl]-2-methylcyclopropyl]-4H-1,2,4-oxadiazol-5-one] | 7.6
Cc1cc(-n2nc3c(c2-n2ccn(-c4ccc5c(cnn5CC5(C)COC5)c4F)c2=O)[C@H](C)N(C(=O)c2cc4cc(C5CCOCC5)ccc4n2[C@@]2(c4noc(=O)[nH]4)C[C@@H]2C)CC3)cc(C)c1F [Example 29, 3-[(1S,2S)-1-[2-[(4S)-2-(4-fluoro-3,5-dimethylphenyl)-3-[3-[4-fluoro-1-[(3-methyloxetan-3-yl)methyl]indazol-5-yl]-2-oxoimidazol-1-yl]-4-methyl-6,7-dihydro-4H-pyrazolo[4,3-c]pyridine-5-carbonyl]-5-(oxan-4-yl)indol-1-yl]-2-methylcyclopropyl]-4H-1,2,4-oxadiazol-5-one] | 1.4
CCc1nccc(-c2ccc3c(c2)cc(C(=O)N2CCc4nn(-c5cc(C)c(F)c(C)c5)c(-n5ccn(-c6ccc7c(C)nn(C)c7c6)c5=O)c4C2)n3[C@@]2(c3noc(=O)[nH]3)C[C@@H]2C)c1C [Example 5, 3-[(1S,2S)-1-[2-[3-[3-(1,3-dimethylindazol-6-yl)-2-oxoimidazol-1-yl]-2-(4-fluoro-3,5-dimethylphenyl)-6,7-dihydro-4H-pyrazolo[4,3-c]pyridine-5-carbonyl]-5-(2-ethyl-3-methylpyridin-4-yl)indol-1-yl]-2-methylcyclopropyl]-4H-1,2,4-oxadiazol-5-one] | 6.1
Cc1cc(-n2nc3c(c2-n2ccn(-c4ccc5c(cnn5C)c4)c2=O)[C@H](C)N(C(=O)c2cc4cc([C@H]5CCO[C@@H](C)C5)ccc4n2[C@@]2(c4noc(=O)[nH]4)C[C@@H]2C)CC3)cc(C)c1F [compound 61, 3-[(1S,2S)-1-[2-[(4S)-2-(4-fluoro-3,5-dimethylphenyl)-4-methyl-3-[3-(1-methylindazol-5-yl)-2-oxoimidazol-1-yl]-6,7-dihydro-4H-pyrazolo[4,3-c]pyridine-5-carbonyl]-5-[(2S,4S)-2-methyloxan-4 yl]indol-1-yl]-2-methylcyclopropyl]-4H-1,2,4-oxadiazol-5-one] | 1.6
COCCn1ncc2cc(-n3ccn(-c4c5c(nn4-c4cc(C)c(F)c(C)c4)CCN(C(=O)c4cc6cc([C@H]7CCO[C@@H](C)C7)ccc6n4[C@@]4(c6noc(=O)[nH]6)C[C@@H]4C)[C@H]5C)c3=O)ccc21 [compound 62, 3-[(1S,2S)-1-[2-[(4S)-2-(4-fluoro-3,5-dimethylphenyl)-3-[3-[1-(2-methoxyethyl)indazol-5-yl]-2-oxoimidazol-1-yl]-4-methyl-6,7-dihydro-4H-pyrazolo[4,3-c]pyridine-5-carbonyl]-5-[(2S,4S)-2-methyloxan-4-yl]indol-1-yl]-2-methylcyclopropyl]-4H-1,2,4-oxadiazol-5-one] | 1.1
Cc1cc(-n2nc3c(c2-n2ccn(-c4ccc5c(cnn5CC(F)(F)F)c4F)c2=O)[C@H](C)N(C(=O)c2cc4cc(C5CCOCC5)ccc4n2[C@@]2(c4noc(=O)[nH]4)C[C@@H]2C)CC3)cc(C)c1F [Example 28, 3-[(1S,2S)-1-[2-[(4S)-2-(4-fluoro-3,5-dimethylphenyl)-3-[3-[4-fluoro-1-(2,2,2-trifluoroethyl)indazol-5-yl]-2-oxoimidazol-1-yl]-4-methyl-6,7-dihydro-4H-pyrazolo[4,3-c]pyridine-5-carbonyl]-5-(oxan-4-yl)indol-1-yl]-2-methylcyclopropyl]-4H-1,2,4-oxadiazol-5-one] | 1.9
Cc1cc(-n2nc3c(c2-n2ccn(-c4ccc5c(cnn5C)c4)c2=O)[C@H](C)N(C(=O)c2cc4cc([C@H]5CCOC(C)(C)C5)ccc4n2[C@@]2(c4noc(=O)[nH]4)C[C@@H]2C)CC3)cc(C)c1F [compound 66, 3-[(1S,2S)-1-[5-[(4S)-2,2-dimethyloxan-4-yl]-2-[(4S)-2-(4-fluoro-3,5-dimethylphenyl)-4-methyl-3-[3-(1-methylindazol-5-yl)-2-oxoimidazol-1-yl]-6,7-dihydro-4H-pyrazolo[4,3-c]pyridine-5-carbonyl]indol-1-yl]-2-methylcyclopropyl]-4H-1,2,4-oxadiazol-5-one] | 0.81
Cc1cc(C)cc(-n2nc3c(c2-n2ccn(-c4ccc5c(cnn5C)c4)c2=O)CN(C(=O)c2cc4cc(C5CCOC(C)(C)C5)ccc4n2[C@@]2(c4noc(=O)[nH]4)C[C@@H]2C)CC3)c1 (stereo partly shown) [compound 60] | 4.9
Cc1cc(-n2nc3c(c2-n2ccn(-c4ccc5c(cnn5CC(F)(F)F)c4F)c2=O)[C@H](C)N(C(=O)c2cc4cc([C@H]5CCOC(C)(C)C5)ccc4n2[C@@]2(c4noc(=O)[nH]4)C[C@@H]2C)CC3)cc(C)c1F [Example 35, 3-[(1S,2S)-1-[5-[(4S)-2,2-dimethyloxan-4-yl]-2-[(4S)-2-(4-fluoro-3,5-dimethylphenyl)-3-[3-[4-fluoro-1-(2,2,2-trifluoroethyl)indazol-5-yl]-2-oxoimidazol-1-yl]-4-methyl-6,7-dihydro-4H-pyrazolo[4,3-c]pyridine-5-carbonyl]indol-1-yl]-2-methylcyclopropyl]-4H-1,2,4-oxadiazol-5-one] | 3.2
